Structures can show the parent of a compound that is named as a salt.
Columns and labels:
[1] = target: human mPGES-1 (Homo sapiens (Human), UniProt O14684); assay: mPGES-1 inhibiting activity (microsome fractions, PGE2 by HTRF); type: biochemical; conditions: microsomes from CHO-K1 cells transfected with human mPGES-1; PGH2 1 μM, 4° C., 60 seconds; read-out: mPGES-1 Inhibition IC50
Summary of the method: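 PGE2 formation read by HTRF after 60 s at 4 °C with 1 μM PGH2 substrate, following 20 min compound preincubation (1% DMSO) with human mPGES-1 microsomes from transfected CHO-K1 cells. Buffer: potassium phosphate, reduced glutathione, pH 7.4; IC50 from activity relative to enzyme-free blank.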

[2] = system: A549 cells; assay: Inhibition of PGE2 production in A549 cell (IL-1β stimulated); type: cell-based, human; conditions: Homo sapiens, A549, 24 h, IL-1β 5 ng/well, PGE2 in culture medium
Summary of the method: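 After IL-1β (5 ng/well) stimulation for 24 h at 37 °C, following a 60-min compound pretreatment in RPMI with 3% FBS, medium PGE2 (HTRF) and PGF2α (EIA) from human A549 cells were quantified. 100% activity set as IL-1β-induced minus basal production; IC50 calculated.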

Sequence of human mPGES-1 (O14684 whole entry): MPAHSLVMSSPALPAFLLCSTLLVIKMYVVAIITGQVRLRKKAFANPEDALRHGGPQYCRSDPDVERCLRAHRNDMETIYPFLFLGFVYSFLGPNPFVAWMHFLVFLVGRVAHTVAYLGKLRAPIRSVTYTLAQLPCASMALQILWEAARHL

| IC50 [1] | IC50 [2] | Compound |
| --- | --- | --- |
| 101 nM | 209 nM | Cc1c(Cl)cccc1NC(=O)c1cc(NC(=O)c2ccccc2C(F)(F)F)cc2[nH]c(NCCN(C(C)C)C(C)C)nc12 [Example 155, N-(3-Chloro-2-methylphenyl)-2-{[2-(dipropan-2-ylamino)ethyl]amino}-6-({[2-(trifluoromethyl)phenyl]carbonyl}amino)-1H-benzimidazole-4-carboxamide hydrochloride] |
| 1.6 nM | 24.6 nM | Cc1c(Cl)cccc1NC(=O)c1cc(NC(=O)c2ccccc2C(F)(F)F)cc2[nH]c(N3CCOCC3)nc12 [Example 156, N-(3-Chloro-2-methylphenyl)-2-(morpholin-4-yl)-6-({[2-(trifluoromethyl)phenyl]carbonyl}amino)-1H-benzimidazole-4-carboxamide] |
| 3.9 nM | 10900 nM | Cc1c(Cl)cccc1NC(=O)c1cc(NC(=O)c2ccccc2C(F)(F)F)cc2[nH]c(N)nc12 [Example 157, 2-Amino-N-(3-chloro-2-methylphenyl)-6-({[2-(trifluoromethyl)phenyl]carbonyl}amino)-1H-benzimidazole-4-carboxamide hydrochloride] |
| 8.5 nM | 82.2 nM | Cc1c(Cl)cccc1NC(=O)c1cc(NC(=O)c2ccccc2C(F)(F)F)cc2[nH]c(NCC(C)(C)CO)nc12 [Example 158, N-(3-Chloro-2-methylphenyl)-2-[(3-hydroxy-2,2-dimethylpropyl)amino]-6-({[2-(trifluoromethyl)phenyl]carbonyl}amino)-1H-benzimidazole-4-carboxamide hydrochloride] |
| 7.6 nM | 71.6 nM | Cc1c(Cl)cccc1NC(=O)c1cc(NC(=O)c2ccccc2C(F)(F)F)cc2[nH]c(NCC(=O)OC(C)(C)C)nc12 [Example 160, tert-Butyl N-{4-[(3-chloro-2-methylphenyl)carbamoyl]-6-({[2-(trifluoromethyl)phenyl]carbonyl}amino)-1H-benzimidazol-2-yl}glycinate hydrochloride] |
| 3.8 nM | > 10000 nM | Cc1c(Cl)cccc1NC(=O)c1cc(NC(=O)c2ccccc2C(F)(F)F)cc2[nH]c(NCC(=O)O)nc12 [Example 161, N-{4-[(3-Chloro-2-methylphenyl)carbamoyl]-6-({[2-(trifluoromethyl)phenyl]carbonyl}amino)-1H-benzimidazol-2-yl}glycine hydrochloride] |
| 23.8 nM | 52.2 nM | Cc1c(Cl)cccc1NC(=O)c1cc(NC(=O)c2ccccc2C(F)(F)F)cc2c1nc(NCC(C)(C)CO)n2C [Example 162, N-(3-Chloro-2-methylphenyl)-2-[(3-hydroxy-2,2-dimethylpropyl)amino]-1-methyl-6-({[2-(trifluoromethyl)phenyl]carbonyl}amino)-1H-benzimidazole-4-carboxamide hydrochloride] |
| 5.9 nM | 23.2 nM | COCC(C)(C)CNc1nc2c(C(=O)Nc3cccc(Cl)c3C)cc(NC(=O)c3ccccc3C(F)(F)F)cc2[nH]1 [Example 163, N-(3-Chloro-2-methylphenyl)-2-[(3-methoxy-2,2-dimethylpropyl)amino]-6-({[2-(trifluoromethyl)phenyl]carbonyl}amino)-1H-benzimidazole-4-carboxamide hydrochloride] |
| 0.3 nM | 13.3 nM | Cc1c(Cl)cccc1NC(=O)c1cc(NC(=O)c2ccccc2C(F)(F)F)cc2[nH]c(N3CCCC3)nc12 [Example 164, N-(3-Chloro-2-methylphenyl)-2-(pyrrolidin-1-yl)-6-({[2-(trifluoromethyl)phenyl]carbonyl}amino)-1H-benzimidazole-4-carb oxamide hydrochloride] |
| 1.3 nM | 7.4 nM | Cc1c(Cl)cccc1NC(=O)c1cc(NC(=O)c2ccccc2C(F)(F)F)cc2[nH]c(N3CCC3)nc12 [Example 165, 2-(Azetidin-1-yl)-N-(3-chloro-2-methylphenyl)-6-({[2-(trifluoromethyl)phenyl]carbonyl}amino)-1H-benzimidazole-4-carboxamide hydrochloride] |
| 3.2 nM | 29 nM | COC1CN(c2nc3c(C(=O)Nc4cccc(Cl)c4C)cc(NC(=O)c4ccccc4C(F)(F)F)cc3[nH]2)C1 [Example 166, N-(3-Chloro-2-methylphenyl)-2-(3-methoxyazetidin-1-yl)-6-({[2-(trifluoromethyl)phenyl]carbonyl}amino)-1H-benzimidazole-4-carboxamide hydrochloride] |
| 1 nM | 217 nM | Cc1c(Cl)cccc1NC(=O)c1cc(NC(=O)c2ccccc2C(F)(F)F)cc2[nH]c(NCC(C)(C)O)nc12 [Example 167, N-(3-Chloro-2-methylphenyl)-2-[(2-hydroxy-2-methylpropyl)amino]-6-({[2-(trifluoromethyl)phenyl]carbonyl}amino)-1H-benz imidazole-4-carboxamide hydrochloride] |
| 3.2 nM | 23.9 nM | Cc1c(Cl)cccc1NC(=O)c1cc(NC(=O)c2ccccc2C(F)(F)F)cc2[nH]c(NC[C@@H]3CCCO3)nc12 [Example 168, N-(3-Chloro-2-methylphenyl)-2-{[(2S)-tetrahydrofuran-2-ylmethyl]amino}-6-({[2-(trifluoromethyl)phenyl]carbonyl}amino)-1H-benzimidazole-4-carboxamide hydrochloride] |
| 2.4 nM | 88.6 nM | Cc1c(Cl)cccc1NC(=O)c1cc(NC(=O)c2ccccc2C(F)(F)F)cc2[nH]c(NC[C@H]3CCCO3)nc12 [Example 169, N-(3-Chloro-2-methylphenyl)-2-{[(2R)-tetrahydrofuran-2-ylmethyl]amino}-6-({[2-(trifluoromethyl)phenyl]carbonyl}amino)-1H-benzimidazole-4-carboxamide hydrochloride] |
| 3.2 nM | 17.8 nM | Cc1c(Cl)cccc1NC(=O)c1cc(NC(=O)c2ccccc2C(F)(F)F)cc2[nH]c(N[C@H](CO)C(C)C)nc12 [Example 170, N-(3-Chloro-2-methylphenyl)-2-{[(2S)-1-hydroxy-3-methylbutan-2-yl]amino}-6-({[2-(trifluoromethyl)phenyl]carbonyl}amino-1H-benzimidazole-4-carboxamide hydrochloride] |
| 4.7 nM | 97.8 nM | Cc1c(Cl)cccc1NC(=O)c1cc(NC(=O)c2ccccc2C(F)(F)F)cc2[nH]c(N[C@@H](CO)C(C)C)nc12 [Example 171, N-(3-Chloro-2-methylphenyl)-2-{[(2R)-1-hydroxy-3-methylbutan-2-yl]amino}-6-({[2-(trifluoromethyl)phenyl]carbonyl}amino-1H-benzimidazole-4-carboxamide hydrochloride] |
| 4.5 nM | 134 nM | Cc1c(Cl)cccc1NC(=O)c1cc(NC(=O)c2ccccc2C(F)(F)F)cc2[nH]c(N[C@H](CO)C(C)(C)C)nc12 [Example 172, N-(3-Chloro-2-methylphenyl)-2-{[(2S)-1-hydroxy-3,3-dimethylbutan-2-yl]amino}-6-({[2-(trifluoromethyl)phenyl]carbonyl}amino)-1H-benzimidazole-4-carboxamide hydrochloride] |
| 1.1 nM | 60.8 nM | COCC(C)(C)CN(C)c1nc2c(C(=O)Nc3cccc(Cl)c3C)cc(NC(=O)c3ccccc3C(F)(F)F)cc2[nH]1 [Example 173, N-(3-Chloro-2-methylphenyl)-2-[(3-methoxy-2,2-dimethylpropyl)(methyl)amino]-6-({[2-(trifluoromethyl)phenyl]carbonyl}amino)-1H-benzimidazole-4-carboxamide hydrochloride] |
| 2 nM | 117 nM | COCCCNc1nc2c(C(=O)Nc3cccc(Cl)c3C)cc(NC(=O)c3ccccc3C(F)(F)F)cc2[nH]1 [Example 174, N-(3-Chloro-2-methylphenyl)-2-[(3-methoxypropyl)amino]-6-({[2-(trifluoromethyl)phenyl]carbonyl}amino)-1H-benzimidazole-4-carboxamide hydrochloride] |
| 3.6 nM | 144 nM | Cc1c(Cl)cccc1NC(=O)c1cc(NC(=O)c2ccccc2C(F)(F)F)cc2[nH]c(NCCOC(C)C)nc12 [Example 175, N-(3-Chloro-2-methylphenyl)-2-{[2-(propan-2-yloxy)ethyl]amino}-6-({[2-(trifluoromethyl)phenyl]carbonyl}amino)-1H-benzimidazole-4-carboxamide hydrochloride] |
| 8.3 nM | 45.2 nM | COC(C)(C)CNc1nc2c(C(=O)Nc3cccc(Cl)c3C)cc(NC(=O)c3ccccc3C(F)(F)F)cc2[nH]1 [Example 177, N-(3-Chloro-2-methylphenyl)-2-[(2-methoxy-2-methylpropyl)amino]-6-({[2-(trifluoromethyl)phenyl]carbonyl}amino)-1H-benz imidazole-4-carboxamide hydrochloride] |
| 1.2 nM | 12.8 nM | CSCCNc1nc2c(C(=O)Nc3cccc(Cl)c3C)cc(NC(=O)c3ccccc3C(F)(F)F)cc2[nH]1 [Example 178, N-(3-Chloro-2-methylphenyl)-2-{[2-(methylsulfanyl)ethyl]amino}-6-({[2-(trifluoromethyl)phenyl]carbonyl}amino)-1H-benzimidazole-4-carboxamide hydrochloride] |

| Compound | IC50 [1] | IC50 [2] |
| --- | --- | --- |
| Cc1c(Cl)cccc1NC(=O)c1cc(NC(=O)c2ccccc2C(F)(F)F)cc2[nH]c(NCCOC(C)(C)C)nc12 [Example 176, 2-[(2-tert-Butoxyethyl)amino]-N-(3-chloro-2-methylphenyl)-6-({[2-(trifluoromethyl)phenyl]carbonyl}amino)-1H-benzimidazole-4-carboxamide hydrochloride] | 0.3 nM | 138 nM |

Source: patent US9216968B2, “Heterocyclic derivative and pharmaceutical drug” (NIPPON SHINYAKU CO., LTD., priority 2011, dated 2015)
